PubChem BioAssay AID248 (DTP/NCI, 2004)
Where “and” joins values, the source holds several entries; their conditions need not be identical. Equal entries are not always repeated. Inconclusive results and toxic doses are left out. Cut-off read from the data, not from the text of the source: active = T/C of 150% or more; inactive = T/C below 125%.

System: L1210 leukemia ip in BDF1 mice, survival T/C
Test: NCI In Vivo Anticancer Drug Screen. Data for tumor model L1210 Leukemia (intraperitoneal) in B6D2F1 (BDF1) mice
Conditions: higher = longer survival
Procedure, shortened: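 Tumor was transplanted into mice, which were then dosed with test compound or vehicle alone. Survival was recorded for each group, and the treated figure was expressed relative to the control figure.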

[1] = endpoint: mean survival time, dose: 100.0 mg/kg/injection, schedule: Q01DX009 (ip), vehicle: Klucel (hydroxypropylcellulose) (HPC)
[2] = endpoint: mean survival time, dose: 200.0 mg/kg/injection, schedule: Q01DX009 (ip), vehicle: Klucel (hydroxypropylcellulose) (HPC)
[3] = endpoint: mean survival time, dose: 400.0 mg/kg/injection, schedule: Q01DX009 (ip), vehicle: Klucel (hydroxypropylcellulose) (HPC)
[4] = endpoint: mean survival time, dose: 100.0 mg/kg/injection, schedule: Q01DX001 (ip), vehicle: saline
[5] = endpoint: mean survival time, dose: 200.0 mg/kg/injection, schedule: Q01DX001 (ip), vehicle: saline
[6] = endpoint: mean survival time, dose: 400.0 mg/kg/injection, schedule: Q01DX001 (ip), vehicle: saline
[7] = endpoint: mean survival time, dose: 100.0 mg/kg/injection, schedule: Q04DX003 (ip), vehicle: Klucel (hydroxypropylcellulose) (HPC)
[8] = endpoint: mean survival time, dose: 200.0 mg/kg/injection, schedule: Q04DX003 (ip), vehicle: Klucel (hydroxypropylcellulose) (HPC)
[9] = endpoint: mean survival time, dose: 400.0 mg/kg/injection, schedule: Q04DX003 (ip), vehicle: Klucel (hydroxypropylcellulose) (HPC)
[10] = endpoint: mean survival time, dose: 50.0 mg/kg/injection, schedule: Q01DX009 (ip), vehicle: saline with Tween-80

Measured: T/C

C(=NC(c1ccccc1)(c1ccccc1)c1ccccc1)=NC(c1ccccc1)(c1ccccc1)c1ccccc1
inactive: endpoint: mean survival time, dose: 25.0 mg/kg/injection, schedule: Q01DX009 (ip), vehicle: gum acacia 88 % of control | endpoint: mean survival time, dose: 50.0 mg/kg/injection, schedule: Q01DX009 (ip), vehicle: gum acacia 90 % of control | endpoint: mean survival time, dose: 100.0 mg/kg/injection, schedule: Q04DX003 (ip), vehicle: gum acacia 93 % of control | endpoint: mean survival time, dose: 200.0 mg/kg/injection, schedule: Q01DX009 (ip), vehicle: gum acacia 88 % of control | endpoint: mean survival time, dose: 200.0 mg/kg/injection, schedule: Q04DX003 (ip), vehicle: gum acacia 91 % of control | endpoint: mean survival time, dose: 400.0 mg/kg/injection, schedule: Q01DX009 (ip), vehicle: gum acacia 88 % of control | endpoint: mean survival time, dose: 400.0 mg/kg/injection, schedule: Q04DX003 (ip), vehicle: gum acacia 86 % of control

CCCCNC(=O)C(=O)c1ccccc1NC(C)=O
inactive: [1] 86 % of control | [2] 87 % of control | [3] 97 % of control

CCOC(=O)NCC(C)(C)C
inactive: [4] 104 % of control | [5] 107 % of control | [6] 93 % of control

CCN(CC)C(=S)SCC(=O)O
inactive: endpoint: mean survival time, dose: 100.0 mg/kg/injection, schedule: Q04DX003 (ip), vehicle: other 101 % of control | endpoint: mean survival time, dose: 200.0 mg/kg/injection, schedule: Q04DX003 (ip), vehicle: other 98 % of control | endpoint: mean survival time, dose: 400.0 mg/kg/injection, schedule: Q04DX003 (ip), vehicle: other 98 % of control

CN(N=O)C(=O)NN(C)C(=O)N(C)N=O
inactive: endpoint: mean survival time, dose: 50.0 mg/kg/injection, schedule: Q01DX001 (ip), vehicle: carboxymethylcellulose (CMC) 114 % of control | endpoint: mean survival time, dose: 200.0 mg/kg/injection, schedule: Q01DX001 (ip), vehicle: carboxymethylcellulose (CMC) 121 % of control | endpoint: mean survival time, dose: 300.0 mg/kg/injection, schedule: Q01DX001 (ip), vehicle: carboxymethylcellulose (CMC) 114 % of control | endpoint: mean survival time, dose: 400.0 mg/kg/injection, schedule: Q01DX001 (ip), vehicle: carboxymethylcellulose (CMC) 121 % of control

CCc1ccccc1NC(=O)c1cccc(C(=O)Nc2ccccc2CC)c1
inactive: endpoint: mean survival time, dose: 50.0 mg/kg/injection, schedule: Q01DX009 (ip), vehicle: Klucel (hydroxypropylcellulose) (HPC) 98 % of control | [1] 94 % of control | [7] 91 % of control | [2] 110 % of control | [8] 88 % of control

COC1OC2COC(c3ccccc3)OC2C(OC(=S)N(C)C)C1OC(=S)N(C)C (stereo unspecified)
inactive: endpoint: mean survival time, dose: 100.0 mg/kg/injection, schedule: Q04DX003 (ip), vehicle: saline sonified 94 % of control | endpoint: mean survival time, dose: 200.0 mg/kg/injection, schedule: Q04DX003 (ip), vehicle: saline sonified 92 % of control | endpoint: mean survival time, dose: 400.0 mg/kg/injection, schedule: Q04DX003 (ip), vehicle: saline sonified 92 % of control

NC(=O)C1CCN(C(=O)Nc2cc(C(F)(F)F)ccc2Cl)CC1
inactive: endpoint: mean survival time, dose: 100.0 mg/kg/injection, schedule: Q01DX001 (ip), vehicle: Klucel (hydroxypropylcellulose) (HPC) 93 % of control | [1] 98 % of control and 102 % of control | endpoint: mean survival time, dose: 100.0 mg/kg/injection, schedule: Q04DX002 (ip), vehicle: Klucel (hydroxypropylcellulose) (HPC) 103 % of control and 107 % of control | [7] 111 % of control | endpoint: mean survival time, dose: 200.0 mg/kg/injection, schedule: Q01DX001 (ip), vehicle: Klucel (hydroxypropylcellulose) (HPC) 86 % of control | [2] 93 % of control and 98 % of control | endpoint: mean survival time, dose: 200.0 mg/kg/injection, schedule: Q04DX002 (ip), vehicle: Klucel (hydroxypropylcellulose) (HPC) 100 % of control and 105 % of control | [8] 103 % of control | endpoint: mean survival time, dose: 400.0 mg/kg/injection, schedule: Q01DX001 (ip), vehicle: Klucel (hydroxypropylcellulose) (HPC) 91 % of control | [3] 95 % of control | endpoint: mean survival time, dose: 400.0 mg/kg/injection, schedule: Q04DX002 (ip), vehicle: Klucel (hydroxypropylcellulose) (HPC) 100 % of control | [9] 107 % of control

COC(=O)CCC(=O)NCC(=O)OCc1ccccc1
inactive: endpoint: mean survival time, dose: 100.0 mg/kg/injection, schedule: Q01DX001 (ip), vehicle: water 105 % of control | endpoint: mean survival time, dose: 100.0 mg/kg/injection, schedule: Q04DX003 (ip), vehicle: water 100 % of control | endpoint: mean survival time, dose: 200.0 mg/kg/injection, schedule: Q01DX001 (ip), vehicle: water 107 % of control | endpoint: mean survival time, dose: 200.0 mg/kg/injection, schedule: Q04DX003 (ip), vehicle: water 96 % of control | endpoint: mean survival time, dose: 400.0 mg/kg/injection, schedule: Q01DX001 (ip), vehicle: water 105 % of control | endpoint: mean survival time, dose: 400.0 mg/kg/injection, schedule: Q04DX003 (ip), vehicle: water 90 % of control

C=C(COC(C)(C)C)CN(C)C
inactive: [4] 94 % of control | [5] 93 % of control

O=C(C1C2C=CC(C2)C1C(=O)N1CCCCC1)N1CCCCC1 (stereo unspecified)
inactive: endpoint: mean survival time, dose: 25.0 mg/kg/injection, schedule: Q04DX003 (ip), vehicle: saline 103 % of control | endpoint: mean survival time, dose: 50.0 mg/kg/injection, schedule: Q04DX003 (ip), vehicle: saline 95 % of control | endpoint: mean survival time, dose: 100.0 mg/kg/injection, schedule: Q04DX003 (ip), vehicle: saline with Tween-80 111 % of control | endpoint: mean survival time, dose: 100.0 mg/kg/injection, schedule: Q04DX003 (ip), vehicle: saline 98 % of control | endpoint: mean survival time, dose: 200.0 mg/kg/injection, schedule: Q04DX003 (ip), vehicle: saline with Tween-80 86 % of control

Cc1cccc(-c2nc(N)nc(N)n2)c1C
inactive: [10] 97 % of control | endpoint: mean survival time, dose: 100.0 mg/kg/injection, schedule: Q01DX009 (ip), vehicle: saline with Tween-80 101 % of control | endpoint: mean survival time, dose: 200.0 mg/kg/injection, schedule: Q01DX009 (ip), vehicle: saline with Tween-80 101 % of control

NC(CCl)=NCCC1=NCCN1
inactive: endpoint: mean survival time, dose: 100.0 mg/kg/injection, schedule: Q04DX002 (ip), vehicle: saline 100 % of control | endpoint: mean survival time, dose: 200.0 mg/kg/injection, schedule: Q04DX002 (ip), vehicle: saline 106 % of control

O=Nc1ccc(-[n+]2ccccc2)c([N+](=O)[O-])c1
inactive: endpoint: mean survival time, dose: 75.0 mg/kg/injection, schedule: Q01DX001 (ip), vehicle: saline 98 % of control

Cc1cc(Cl)ccc1NC(=O)OCCOc1ccc([N+](=O)[O-])cc1
inactive: endpoint: mean survival time, dose: 12.5 mg/kg/injection, schedule: Q01DX009 (ip), vehicle: saline with Tween-80 107 % of control | endpoint: mean survival time, dose: 25.0 mg/kg/injection, schedule: Q01DX009 (ip), vehicle: saline with Tween-80 91 % of control | [10] 110 % of control

CC[C@@H](c1ccc(O)cc1)[C@@H](CC)c1ccc(O)cc1
inactive: endpoint: mean survival time, dose: 25.0 mg/kg/injection, schedule: Q01DX009 (sc), vehicle: steriod suspending solution 100 % of control and 108 % of control | endpoint: mean survival time, dose: 25.0 mg/kg/injection, schedule: Q01DX010 (sc), vehicle: steriod suspending solution 101 % of control | endpoint: mean survival time, dose: 50.0 mg/kg/injection, schedule: Q01DX009 (sc), vehicle: steriod suspending solution 96 % of control and 100 % of control | endpoint: mean survival time, dose: 50.0 mg/kg/injection, schedule: Q01DX010 (sc), vehicle: steriod suspending solution 95 % of control | endpoint: mean survival time, dose: 100.0 mg/kg/injection, schedule: Q01DX009 (sc), vehicle: steriod suspending solution 96 % of control and 102 % of control | endpoint: mean survival time, dose: 100.0 mg/kg/injection, schedule: Q01DX010 (sc), vehicle: steriod suspending solution 98 % of control | endpoint: mean survival time, dose: 125.0 mg/kg/injection, schedule: Q01DX Z (ip), vehicle: carboxymethylcellulose (CMC) 91 % of control | endpoint: mean survival time, dose: 200.0 mg/kg/injection, schedule: Q01DX009 (sc), vehicle: steriod suspending solution 93 % of control and 99 % of control | endpoint: mean survival time, dose: 200.0 mg/kg/injection, schedule: Q01DX010 (sc), vehicle: steriod suspending solution 95 % of control | endpoint: median survival time, dose: 25.0 mg/kg/injection, schedule: Q01DX009 (sc), vehicle: steriod suspending solution 100 % of control | endpoint: median survival time, dose: 50.0 mg/kg/injection, schedule: Q01DX009 (sc), vehicle: steriod suspending solution 100 % of control and 111 % of control | endpoint: median survival time, dose: 100.0 mg/kg/injection, schedule: Q01DX009 (sc), vehicle: steriod suspending solution 100 % of control and 111 % of control | endpoint: median survival time, dose: 200.0 mg/kg/injection, schedule: Q01DX009 (sc), vehicle: steriod suspending solution 100 % of control

CCCCCCCCCCCCCCCCCCOC(=O)Cc1ccc(N(CCCl)CCCl)cc1
inactive: [1] 105 % of control | [7] 100 % of control | [2] 110 % of control | [8] 109 % of control | [3] 115 % of control | [9] 105 % of control

OC1C2C=CC(C2)C1O (stereo unspecified)
inactive: endpoint: mean survival time, dose: 44.0 mg/kg/injection, schedule: Q01DX001 (ip), vehicle: saline 96 % of control | endpoint: mean survival time, dose: 66.0 mg/kg/injection, schedule: Q01DX001 (ip), vehicle: saline 100 % of control | endpoint: mean survival time, dose: 150.0 mg/kg/injection, schedule: Q01DX001 (ip), vehicle: saline 94 % of control | [5] 106 % of control | [6] 100 % of control
